Source: patent publication US8236789B2, “1-adamantyl azetidin-2-one derivatives and drugs containing same” (Kowa Company, Ltd., priority 2008, dated 2012)

Key:
Type in all cases: biochemical
[1] = biological target: T1, human 11β-HSD2 (Homo sapiens, UniProt P80365); experiment: Enzyme inhibitory activity assay, lysate of HEK293 cells stably expressing human 11β-HSD2, cortisol by competitive ELISA; details: Table 1; cell lysate, 100 nmol/L cortisol, NAD+, 37° C. 1 hour; read-out: in vitro assay (IC50 uM) h HSD2
T1 construct: expressed in transfected cells
T1 sequence (P80365 1-405): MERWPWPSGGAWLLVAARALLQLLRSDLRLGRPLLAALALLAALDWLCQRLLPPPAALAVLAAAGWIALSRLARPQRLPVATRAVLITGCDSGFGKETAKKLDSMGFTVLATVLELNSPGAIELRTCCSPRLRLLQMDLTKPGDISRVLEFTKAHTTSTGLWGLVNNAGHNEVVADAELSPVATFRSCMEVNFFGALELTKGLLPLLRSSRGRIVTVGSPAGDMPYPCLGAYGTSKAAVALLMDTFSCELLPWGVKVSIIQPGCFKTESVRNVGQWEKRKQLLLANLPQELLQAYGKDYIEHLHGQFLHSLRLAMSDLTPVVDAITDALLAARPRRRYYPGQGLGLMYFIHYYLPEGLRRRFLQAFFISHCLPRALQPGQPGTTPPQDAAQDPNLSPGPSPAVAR
Experimental: (§1) 1. Human 11β-HSD1-, Human 11β-HSD2- and Mouse 11β-HSD1-Gene Clonings and Establishment of Stably Expressing Cells
Human 11β-HSD1-, human 11β-HSD2-, and mouse 11β-HSD1-gene clonings were conducted using as a template a reverse transcription product of human-liver RNA, human-kidney RNA (CELL APPLICATIONS), and mouse-kidney RNA respectively, by means of PCR cloning with reference to nucleotide sequences of Genbank Accession Nos. NM_005525, NM_000196, and NM_008288. The obtained PCR products of about 0.9 kbp, 1.2 kbp, and 0.9 kbp were subcloned into an expression vector pcDNA3.1+/Zeo (Invitrogen).
(§2) Human 11β-HSD1- and human 11β-HSD2-expressing vectors were transfected into human kidney-derived cell line, HEK293 cells, using a transfection reagent, jet PEI (Funakoshi). Mouse 11β-HSD1 was transfected to Chinese hamster ovary-derived cell line, CHO-K1 cells. Selection was conducted with 200-400 μg/mL of zeocine (Invitrogen) to provide stably expressing-cell clones. The stably expressing cells were suspended in buffer solution A (20 mmol/L Tris-HCl, pH 7.4, 250 mmol/L sucrose, 1 mmol/L EGTA, 1 mmol/L EDTA, 1 mmol/L MgCl2), sonicated, and then stored at −80° C.
(§3) 2. Assay of Enzyme Inhibitory Activity
(§4) An enzymatic reaction was conducted using a polystyrene 96-well plate. Each well was added with 1 μL of a test agent dissolved in DMSO and then diluted (0.003 to 3 mmol/L), and further added with 10 μL of cell lysate diluted to a concentration of 0.1 mg/mL to 0.4 mg/mL. Next, 90 μL of buffer solution A containing substrate (100 nmol/L cortisone or cortisol) and coenzyme (400 μmol/L NADPH or NAD+) was added and the mixture was incubated at 37° C. for 1 hour. The enzymatic reaction was stopped by treating at 95° C. for 3 minutes. Cortisol that was present in the reaction solution was determined by a competitive ELISA shown below.
Anti-rabbit IgG antibody (Chemi-con) diluted to 2 μg/mL with carbonate buffer solution (pH 9.6) was added in 100 μL each to a 96-well immuno plate (Nunc) and immobilized by an incubation at 4° C. overnight. 50 μL of enzymatic reaction solution was put onto the plates, and further, anti-cortisol antibody (Cosmo Bio) and HRP-labeled cortisol (Cosmo Bio), diluted with buffer solution B (25 mmol/L Tris-HCl pH 7.4, 137 mmol/L NaCl, 2.68 mmol/L KCl), were added in 50 μL respectively and incubated at 4° C. overnight. After washed three times with buffer solution B containing 0.05% Tween 20, the plates were allowed to develop color by adding 100 μL, of color reagent, TMB (Moss). The color reaction was stopped by 25 μL of 1 mol/L sulfuric acid and the absorbance was determined at 450 nm with a microplate reader (Molecular Device, VersaMax).
The values of human 11β-HSD1, human 11β-HSD2, and mouse 11β-HSD1 activities were subtracted from 100, and the resultant values were regarded as the respective 11βHSD inhibition rates of example compounds. […] The comparison of human 11β-HSD1 and human 11β-HSD2 inhibiting activities is shown in Table 1, and the comparison of human 11β-HSD1 and mouse 11β-HSD1 inhibiting activities is shown in Table 2.

[2] = biological target: T2, mouse 11β-HSD1 (Mus musculus, UniProt P50172); experiment: Enzyme inhibitory activity assay, lysate of CHO-K1 cells stably expressing mouse 11β-HSD1, cortisol by competitive ELISA; details: Table 2; cell lysate, 100 nmol/L cortisone, NADPH, 37° C. 1 hour; read-out: in vitro assay (IC50 uM) m HSD1
T2 construct: expressed in transfected cells
T2 sequence (P50172 whole entry): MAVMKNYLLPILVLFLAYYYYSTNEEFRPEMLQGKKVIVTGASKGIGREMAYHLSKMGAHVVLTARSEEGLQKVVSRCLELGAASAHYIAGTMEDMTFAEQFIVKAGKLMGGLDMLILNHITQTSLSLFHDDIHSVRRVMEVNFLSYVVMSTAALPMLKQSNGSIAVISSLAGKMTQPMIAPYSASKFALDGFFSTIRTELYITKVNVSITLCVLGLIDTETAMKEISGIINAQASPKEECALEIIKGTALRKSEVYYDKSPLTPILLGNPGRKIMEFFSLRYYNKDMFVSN
Experimental: as §1, §2, §3, §4
(§5) Anti-rabbit IgG antibody (Chemi-con) diluted to 2 μg/mL with carbonate buffer solution (pH 9.6) was added in 100 μL each to a 96-well immuno plate (Nunc) and immobilized by an incubation at 4° C. overnight. […] After washed three times with buffer solution B containing 0.05% Tween 20, the plates were allowed to develop color by adding 100 μL, of color reagent, TMB (Moss). The color reaction was stopped by 25 μL of 1 mol/L sulfuric acid and the absorbance was determined at 450 nm with a microplate reader (Molecular Device, VersaMax).

[3] = biological target: T3, human 11β-HSD1 (Homo sapiens, UniProt P28845); experiment: Enzyme inhibitory activity assay, lysate of HEK293 cells stably expressing human 11β-HSD1, cortisol by competitive ELISA; details: Table 1; cell lysate, 100 nmol/L cortisone, NADPH, 37° C. 1 hour; read-out: in vitro assay (IC50 uM) h HSD1
T3 construct: expressed in transfected cells
T3 sequence (P28845 whole entry): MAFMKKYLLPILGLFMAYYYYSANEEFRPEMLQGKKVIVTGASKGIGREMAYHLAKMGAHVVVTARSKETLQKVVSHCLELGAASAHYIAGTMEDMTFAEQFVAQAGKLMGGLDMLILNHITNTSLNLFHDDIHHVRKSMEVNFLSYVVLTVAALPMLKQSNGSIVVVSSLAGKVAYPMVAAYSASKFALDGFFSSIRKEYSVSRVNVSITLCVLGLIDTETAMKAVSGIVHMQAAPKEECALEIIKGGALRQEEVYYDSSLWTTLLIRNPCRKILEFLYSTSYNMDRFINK
Experimental: as §1, §2, §3, §4, §5

SMILES | IC50 [1] [µM] | IC50 [2] [µM] | IC50 [3] [µM]
CC1(C)C(=O)N(C2C3CC4CC(C3)CC2C4)C1c1ccccc1 (centres unmarked) [Example 1, 1-(adamantan-2-yl)-3,3-dimethyl-4-phenylazetidin-2-one] | 3 to 30 | 0.077 | 0.013
COc1ccc(C2N(C3C4CC5CC(C4)CC3C5)C(=O)C2(C)C)cc1 (centres unmarked) [Example 23, 1-(adamantan-2-yl)-3,3-dimethyl-4-(4-methoxyphenyl)azetidin-2-one] | > 30 |  | 0.01
CC1(C)C(=O)N(C2C3CC4CC(C3)CC2C4)C1c1cccc(F)c1F (centres unmarked) [Example 24, 1-(adamantan-2-yl)-3,3-dimethyl-4-(2,3-difluorophenyl)azetidin-2-one] | > 30 | 0.1 | 0.011
CC1(C)C(=O)N(C2C3CC4CC(C3)CC2C4)C1c1ccc(Cl)c(Cl)c1 (centres unmarked) [Example 26, 1-(adamantan-2-yl)-3,3-dimethyl-4-(3,4-dichlorophenyl)azetidin-2-one] | > 30 | 0.46 | 0.013
CC1(C)C(=O)N(C2C3CC4CC(C3)CC2C4)C1c1ccc(F)c(F)c1 (centres unmarked) [Example 27, 1-(adamantan-2-yl)-3,3-dimethyl-4-(3,4-difluorophenyl)azetidin-2-one] | 8.8 |  | 0.017
CC1(C)C(=O)N(C2C3CC4CC(C3)CC2C4)C1c1ccc(F)c(Cl)c1 (centres unmarked) [Example 29, 1-(adamantan-2-yl)-3,3-dimethyl-4-(3-chloro-4-fluorophenyl)azetidin-2-one] | > 30 | 0.59 | 0.011
CC1(C)C(=O)N(C2C3CC4CC(C3)CC2C4)C1c1cc(F)cc(F)c1F (centres unmarked) [Example 35, 1-(adamantan-2-yl)-3,3-dimethyl-4-(2,3,5-trifluorophenyl)azetidin-2-one] | > 30 | 0.61 | 0.053
CC(C)c1ccc(C2N(C3C4CC5CC(C4)CC3C5)C(=O)C2(C)C)cc1 (centres unmarked) [Example 37, 1-(adamantan-2-yl)-3,3-dimethyl-4-(4-isopropylphenyl)azetidin-2-one] | 14 |  | 0.026
CC(C)(C)c1ccc(C2N(C3C4CC5CC(C4)CC3C5)C(=O)C2(C)C)cc1 (centres unmarked) [Example 38, 1-(adamantan-2-yl)-3,3-dimethyl-4-(4-t-butylphenyl)azetidin-2-one] | 3 to 30 |  | 0.079
CC1(C)C(=O)N(C2C3CC4CC(C3)CC2C4)C1c1cccc2c1OCC=CC2 (centres unmarked) [Example 67, 1-(adamantan-2-yl)-4-(2,5-dihydrobenzo[b]oxepin-9-yl)-3,3-dimethylazetidin-2-one] |  | 0.029 | 0.065
CC1(C)C(=O)N(C2C3CC4CC(C3)CC2C4)C1c1cccc2c1OCCCC2 (centres unmarked) [Example 68, 1-(adamantan-2-yl)-3,3-dimethyl-4-(benzo[b]oxepan-9-yl)azetidin-2-one] | 3 to 30 | 0.02 | 0.026
CC1(C)C(=O)N(C2C3CC4CC(C3)CC2C4)C1Cc1ccccc1 (centres unmarked) [Example 69, 4-benzyl-1-(adamantan-2-yl)-3,3-dimethylazetidin-2-one] | 0.28 | 0.0051 | 0.02

The next compounds have a lower IC50 [3] than those just listed; values first:

IC50 [1] [µM] | IC50 [2] [µM] | IC50 [3] [µM] | SMILES
15 | 0.66 | 0.0095 | CC1(C)C(=O)N(C2C3CC4CC(C3)CC2C4)C1c1ccc(Cl)cc1 (centres unmarked) [Example 22, 1-(adamantan-2-yl)-3,3-dimethyl-4-(4-chlorophenyl)azetidin-2-one]
6.7 | 0.072 | 0.0067 | COc1ccccc1C1N(C2C3CC4CC(C3)CC2C4)C(=O)C1(C)C (centres unmarked) [Example 33, 1-(adamantan-2-yl)-3,3-dimethyl-4-(2-methoxyphenyl)azetidin-2-one]
3 to 30 | 0.055 | 0.0034 | CC1(C)C(=O)N(C2C3CC4CC(C3)CC2C4)C1c1ccccc1F (centres unmarked) [Example 39, 1-(adamantan-2-yl)-3,3-dimethyl-4-(2-fluorophenyl)azetidin-2-one]
> 30 | 0.34 | 0.0059 | COc1ccc(C2N(C3C4CC5CC(C4)CC3C5)C(=O)C2(C)C)c(F)c1 (centres unmarked) [Example 40, 1-(adamantan-2-yl)-3,3-dimethyl-4-(2-fluoro-4-methoxyphenyl)azetidin-2-one]
3 to 30 | 0.079 | 0.0087 | CC1(C)C(=O)N(C2C3CC4CC(C3)CC2C4)C1c1ccccc1C(F)(F)F (centres unmarked) [Example 41, 1-(adamantan-2-yl)-3,3-dimethyl-4-(2-trifluoromethylphenyl)azetidin-2-one]
3 to 30 | 0.076 | 0.0055 | CC1(C)C(=O)N(C2C3CC4CC(C3)CC2C4)C1c1ccccc1Cl (centres unmarked) [Example 44, 1-(adamantan-2-yl)-3,3-dimethyl-4-(2-chlorophenyl)azetidin-2-one]
 | 0.0056 | 0.0075 | CC1(C)C(=O)N([C@H]2C3CC4CC2C[C@](O)(C4)C3)C1c1cccc2ccccc12 (stereo partly drawn) [Example 47, trans-1-(5-hydroxyadamantan-2-yl)-3,3-dimethyl-4-(naphthalen-1-yl)azetidin-2-one]
 | 0.33 | 0.0088 | COc1ccc(C2N([C@H]3C4CC5CC3C[C@](O)(C5)C4)C(=O)C2(C)C)c2ccccc12 (stereo partly drawn) [Example 48, trans-1-(5-hydroxyadamantan-2-yl)-3,3-dimethyl-4-(4-methoxynaphthalen-1-yl)azetidin-2-one]
 | 0.027 | 0.0046 | CC1(C)C(=O)N([C@H]2C3CC4CC2C[C@](F)(C4)C3)C1c1cccc(Cl)c1Cl (stereo partly drawn) [Example 52, trans-1-(5-fluoroadamantan-2-yl)-3,3-dimethyl-4-(2,3-dichlorophenyl)azetidin-2-one]
 | 0.025 | 0.0039 | CC1(C)C(=O)N(C2C3CC4CC(C3)CC2C4)C1c1cccc(Cl)c1 (centres unmarked) [Example 53, 1-(adamantan-2-yl)-3,3-dimethyl-4-(3-chlorophenyl)azetidin-2-one]
 | 0.87 | 0.0039 | CSc1ccc(C2N(C3C4CC5CC(C4)CC3C5)C(=O)C2(C)C)cc1 (centres unmarked) [Example 55, 1-(adamantan-2-yl)-3,3-dimethyl-4-[4-(methylthio)phenyl]azetidin-2-one]
> 30 | 0.46 | 0.0079 | COc1ccc(C2N(C3C4CC5CC(C4)CC3C5)C(=O)C2(C)C)c(C)c1 (centres unmarked) [Example 56, 1-(adamantan-2-yl)-3,3-dimethyl-4-(4-methoxy-2-methylphenyl)azetidin-2-one]
